Activity calls are given as the source filed them. The rule behind the calls is not given here.
Columns and labels:
[1] = test system: Dopamine receptor; conditions: Felis catus
[2] = test system: Felis catus; experiment: Compound was tested for inhibition of chronotropic stimulation response on the cardioaccelerator nerve in cat at the concentration > 3.0 uM/kg; Inactive; format: functional, organism-based
[3] = species: Rattus norvegicus; experiment: Compound was tested for induction of contralateral turning behavior with unilateral lesions of the nigrostriatal pathway in rat by haloperidol; Significant at p< 0.05; format: functional, organism-based
[4] = test system: Rattus norvegicus; experiment: Compound was tested for induction of contralateral turning behavior with unilateral lesions of the nigrostriatal pathway in rat, activity expressed as potency ratio to apomorphine; Inactive up to 13.3 umol/kg; format: functional, organism-based
[5] = species: Felis catus; experiment: Compound was tested for inhibition of chronotropic stimulation response on the cardioaccelerator nerve in cat; format: functional; conditions: read-out: ID50 (the source's name)
[6] = species: Rattus norvegicus; experiment: Compound was tested for induction of contralateral turning behavior with unilateral lesions of the nigrostriatal pathway in rat, activity expressed as potency ratio to apomorphine.; format: functional
[7] = test system: Rattus norvegicus; experiment: Compound was tested for induction of contralateral turning behavior with unilateral lesions of the nigrostriatal pathway in rat, activity expressed as potency ratio to apomorphine; Inactive up to 11.7 umol/kg; format: functional, organism-based
[8] = species: Felis catus; experiment: Compound was tested for antagonism of apomorphine induced inhibition of the tachycardia produced by stimulation of the right cardioaccelerator nerve in cat; format: functional
[9] = test system: Rattus norvegicus; experiment: Compound was tested for induction of contralateral turning behavior with unilateral lesions of the nigrostriatal pathway in rat, activity expressed as potency ratio to apomorphine; Inactive up to 16.9 umol/kg; format: functional, organism-based
[10] = test system: Rattus norvegicus; experiment: Compound was tested for induction of contralateral turning behavior with unilateral lesions of the nigrostriatal pathway in rat, activity expressed as potency ratio to apomorphine; Inactive up to 12.19 umol/kg; format: functional, organism-based
[11] = test system: Rattus norvegicus; experiment: Compound was tested for induction of contralateral turning behavior with unilateral lesions of the nigrostriatal pathway in rat, activity expressed as potency ratio to apomorphine; Inactive up to 12.3 umol/kg; format: functional, organism-based
[12] = species: Rattus norvegicus; experiment: Compound was tested for induction of contralateral turning behavior with unilateral lesions of the nigrostriatal pathway in rat by haloperidol; NS= Not significant; format: functional, organism-based
[13] = test system: Rattus norvegicus; experiment: Compound was tested for induction of contralateral turning behavior with unilateral lesions of the nigrostriatal pathway in rat, activity expressed as potency ratio to apomorphine; Inactive in inducing turns up to 12.1 umol/kg; format: functional, organism-based
[14] = test system: Rattus norvegicus; experiment: Compound was tested for induction of contralateral turning behavior with unilateral lesions of the nigrostriatal pathway in rat, activity expressed as potency ratio to apomorphine; Inactive up to 13.9 umol/kg; format: functional, organism-based

SMILES | AD50 [1] | ID50 [2] | ED50 [5] [µmol/kg] | Potency ratio [6] | other results
CCCN(CCC)CCc1ccc(C=O)c(O)c1 | inactive | inactive | – | – | Antagonism [3]: Active; Potency ratio [4]: inactive
CCCN(CCC)C1Cc2ccc(CO)c(O)c2C1 (centres undefined) | inactive | – | 0.12 | 0.33 | Antagonism [3]: Active
CCCN1CCC[C@H]2c3ccc(CO)c(O)c3CC[C@@H]21 | inactive | inactive | – | 0.07 | Antagonism [3]: Active
CCCN(CCC)C1CCc2c(ccc(C=O)c2O)C1 (centres undefined) | inactive | – | 0.13 | 0.07 | –
CCCN(CCC)C1Cc2ccc(C(=O)O)c(O)c2C1 (centres undefined) | inactive | – | 3.18 | – | –
CN1CCc2cccc3c2[C@H]1Cc1ccc(O)c(O)c1-3 [APOMORPHINE] | – | – | 0.022 | – | Antagonism [3]: Active
CCCN(CCC)C1Cc2ccc(C=O)c(O)c2C1 (centres undefined) | inactive | inactive | – | – | Potency ratio [7]: inactive
CCCN1CCC[C@H]2c3ccc(C)c(O)c3CC[C@@H]21 | – | inactive | – | 0.68 | AD50 [8]: 0.44 µM/kg
CCCN(CCC)C1CCc2c(ccc(CO)c2O)C1 (centres undefined) | inactive | – | 0.03 | 0.93 | –
CCCN(CCC)CCc1ccc(C)c(O)c1 | inactive | inactive | – | – | Potency ratio [9]: inactive
CCCN(CCC)CCc1ccc(CO)c(O)c1 | inactive | inactive | – | – | Potency ratio [10]: inactive
CCCN1CCC[C@H]2c3ccc(C(=O)O)c(O)c3CC[C@@H]21 | inactive | inactive | – | – | Potency ratio [11]: inactive
CCCN1CCC[C@H]2c3ccc(C=O)c(O)c3CC[C@@H]21 | inactive | – | 1.81 | 0.38 | Antagonism [12]: inactive
CCCN(CCC)C1CCc2c(ccc(C(=O)O)c2O)C1 (centres undefined) | inactive | inactive | – | – | Potency ratio [13]: inactive
CCCN(CCC)CCc1ccc(C(=O)O)c(O)c1 | inactive | inactive | – | – | Potency ratio [14]: inactive
CCCN(CCC)C1CCc2c(ccc(C)c2O)C1 (centres undefined) | inactive | – | 0.06 | 0.39 | –
CCCN(CCC)C1Cc2ccc(C)c(O)c2C1 (centres undefined) | inactive | – | 0.89 | 0.3 | Antagonism [3]: Active
